# Activity calls are given as the source filed them. The calls are words filed in the database; no cut-off is given here.
# Experiments:
# [1] = tested on: CHO; test: (§1) Inhibition of BACE1 in CHO cells stably expressing amyloid precursor protein after 24 hrs by Western blot analysis; type: cell-based; conditions: Cricetulus griseus
# [2] = as §1; type: cell-based, Cricetulus griseus
# [3] = tested on: CHO; test: Cytotoxicity against CHO cells stably expressing amyloid precursor protein at 2.5 to 10 uM after 24 hrs by MTT assay; type: cell-based, Cricetulus griseus; conditions: chinese hamster
# [4] = Inhibition of gamma secretase in CHO cells stably expressing amyloid precursor protein assessed as reduction in Abeta42 levels by ELISA; type: cell-based; conditions: Cricetulus griseus
# [5] = tested on: CHO; test: Inhibition of gamma secretase in CHO cells stably expressing amyloid precursor protein assessed as reduction in Abeta42 levels at 10 uM by ELISA relative to control; type: cell-based; conditions: Cricetulus griseus
# [6] = tested on: CHO; test: (§2) Inhibition of BACE1 in CHO cells stably expressing amyloid precursor protein assessed as reduction in sAPPbeta expression after 24 hrs by Western blot analysis; type: cell-based; conditions: Cricetulus griseus
# [7] = as §2; type: cell-based; conditions: Cricetulus griseus
# [8] = tested on: Mus musculus; test: Neuroprotective activity against scopolamine-induced memory impairment in ICR mouse assessed as increase in cortical phosphorylated AKT level at 5 mg/kg, po administered for 7 days by Western blot analysis; type: functional, organism-based
# [9] = tested on: Mus musculus; test: Neuroprotective activity against scopolamine-induced memory impairment in ICR mouse assessed as increase in hippocampal phosphorylated ERK level at 2.5 to 5 mg/kg, po administered for 7 days by Western blot analysis; type: functional, organism-based
# [10] = tested on: Mus musculus; test: Memory improvement effect in ICR mouse model of scopolamine-induced memory impairment assessed as discrimination index at 2.5 mg/kg, po administered for 7 days followed by scopolamine challenge 30 mins prior to test by object recognition test (reference value: 60.14 +/- 2.1%); type: functional
# [11] = tested on: Mus musculus; test: Cognitive enhancing effect in ICR mouse model of scopolamine-Induced memory impairment assessed as escape latency time at 2.5 mg/kg, po administered for 7 days and measured after 60 mins at 5th day of training session by Morris water maze test (reference value: 77.5 +/- 6.6 secs); type: functional
# [12] = tested on: Mus musculus; test: Reversal of scopolamine-induced amnesic effect in ICR mouse assessed as step-through latecy time at 2.5 mg/kg, po administered for 7 days followed by scopolamine challenge 30 mins prior to test by passive avoidance test (reference value: 10.80 +/- 4.1 secs); type: functional
# [13] = tested on: Mus musculus; test: Memory improvement effect in ICR mouse model of scopolamine-induced memory impairment assessed as discrimination index at 5 mg/kg, po administered for 7 days followed by scopolamine challenge 30 mins prior to test by object recognition test (reference value: 60.14 +/- 2.1%); type: functional
# [14] = tested on: Mus musculus; test: Reversal of scopolamine-induced amnesic effect in ICR mouse assessed as step-through latecy time at 5 mg/kg, po administered for 7 days followed by scopolamine challenge 30 mins prior to test by passive avoidance test (reference value: 10.80 +/- 4.1 secs); type: functional
# [15] = tested on: Mus musculus; test: Neuroprotective activity against scopolamine-induced memory impairment in ICR mouse assessed as increase in hippocampal phosphorylated AKT level at 2.5 to 5 mg/kg, po administered for 7 days by Western blot analysis; type: functional, organism-based
# [16] = tested on: Mus musculus; test: Cognitive enhancing effect in ICR mouse model of scopolamine-Induced memory impairment assessed as time spent in target quadrant at 2.5 mg/kg, po administered for 7 days and measured on day 6 by Morris water maze test (reference value: 14.48 +/- 1.6 secs); type: functional
# [17] = tested on: Mus musculus; test: Cognitive enhancing effect in ICR mouse model of scopolamine-Induced memory impairment assessed as escape latency time at 5 mg/kg, po administered for 7 days and measured after 60 mins at first day of training session by Morris water maze test (reference value: 84.5 +/- 4.6 secs); type: functional
# [18] = tested on: Mus musculus; test: Cognitive enhancing effect in ICR mouse model of scopolamine-Induced memory impairment assessed as time spent in target quadrant at 5 mg/kg, po administered for 7 days and measured on day 6 by Morris water maze test (reference value: 14.48 +/- 1.6 secs); type: functional
# [19] = tested on: Mus musculus; test: Cognitive enhancing effect in ICR mouse model of scopolamine-induced short-term memory impairment assessed as increase in spontaneous alteration at 5 mg/kg, po administered for 7 days followed by scopolamine challenge 30 mins prior to test by Y-maze test; type: functional
# [20] = tested on: Mus musculus; test: Suppression of AChE in ICR mouse model of scopolamine-induced memory impairment assessed as reduction in protein activity in hippocampus at 5 mg/kg,po administered for 7 days by Ellman's method; type: functional, organism-based
# [21] = tested on: Mus musculus; test: Neuroprotective activity against scopolamine-induced memory impairment in ICR mouse assessed as increase in cortical phosphorylated CREB level at 1.25 to 2.5 mg/kg, po administered for 7 days by Western blot analysis; type: functional, organism-based
# [22] = tested on: Mus musculus; test: Neuroprotective activity against scopolamine-induced memory impairment in ICR mouse assessed as increase in hippocampal phosphorylated CREB level at 5 mg/kg, po administered for 7 days by Western blot analysis; type: functional, organism-based
# [23] = tested on: Mus musculus; test: Cognitive enhancing effect in ICR mouse model of scopolamine-Induced memory impairment assessed as escape latency time at 5 mg/kg, po administered for 7 days and measured after 60 mins at 5th day of training session by Morris water maze test (reference value: 77.5 +/- 6.6 secs); type: functional
# [24] = tested on: Mus musculus; test: Cognitive enhancing effect in ICR mouse model of scopolamine-Induced memory impairment assessed as time spent in target quadrant at 1.25 mg/kg, po administered for 7 days and measured on day 6 by Morris water maze test (reference value: 14.48 +/- 1.6 secs); type: functional
# [25] = tested on: CHO; test: Inhibition of BACE1 in CHO cells stably expressing amyloid precursor protein assessed as sAPPbeta level at 10 uM after 24 hrs by Western blot analysis relative to control; type: cell-based; conditions: Cricetulus griseus
# [26] = tested on: Mus musculus; test: Neuroprotective activity against scopolamine-induced memory impairment in ICR mouse assessed as increase in cortical phosphorylated ERK level at 1.25 to 5 mg/kg, po administered for 7 days by Western blot analysis; type: functional, organism-based
# [27] = tested on: Mus musculus; test: Reversal of scopolamine-induced amnesic effect in ICR mouse assessed as step-through latecy time at 1.25 mg/kg, po administered for 7 days followed by scopolamine challenge 30 mins prior to test by passive avoidance test (reference value: 10.80 +/- 4.1 secs); type: functional
# [28] = tested on: Mus musculus; test: Cognitive enhancing effect in ICR mouse model of scopolamine-Induced memory impairment assessed as escape latency time at 2.5 mg/kg, po administered for 7 days and measured after 60 mins at first day of training session by Morris water maze test (reference value: 84.5 +/- 4.6 secs); type: functional
# [29] = tested on: Mus musculus; test: Cognitive enhancing effect in po dosed ICR mouse model of scopolamine-Induced memory impairment assessed as increase in time spent in target quadrant administered for 7 days and measured on day 6 by Morris water maze test; type: functional, organism-based
structure (smiles),measurement,setting,value
CC(=O)O[C@@H]1[C@H](O)[C@@H](O)[C@H](O[C@H]2CC[C@]34C[C@]35CC[C@]3(C)[C@H]6[C@H](C)C[C@H]([C@@H](OC(C)=O)C(C)(C)O)O[C@@]6(O)[C@H](O)[C@@]3(C)C5=CC[C@H]4C2(C)C)O[C@@H]1CO,inhibition,[1],Dose-dependent effect
same,IC50,[2],7.8 µM
same,Activity,[3],Non-Toxic
same,IC50,[4],14.4 µM
same,inhibition,[5],34.7%
same,inhibition,[6],Dose-dependent effect
same,IC50,[7],8.3 µM
CC(=O)O[C@H]([C@H]1C[C@@H](C)[C@H]2[C@@](O)(O1)[C@H](O)[C@@]1(C)C3=CC[C@H]4C(C)(C)[C@@H](O[C@@H]5OC[C@@H](O)[C@H](O)[C@H]5O)CC[C@@]45C[C@@]35CC[C@]21C)C(C)(C)O,Activity,[8],Active
same,Activity,[9],Active
same,Activity,[10],64.29%
same,inhibition,[1],Dose-dependent effect
same,IC50,[2],7.1 µM
same,Time,[11],49.4 s
same,Time,[12],28.8 s
same,Activity,[13],68%
same,Time,[14],46.9 s
same,Activity,[15],Active
same,Time,[16],20.4 s
same,Activity,[3],Non-Toxic
same,IC50,[4],8.1 µM
same,Time,[17],76 s
same,Time,[18],25.86 s
same,Activity,[19],11.6%
same,Activity,[20],Active
same,inhibition,[5],61.7%
same,Activity,[21],Active
same,Activity,[22],Active
same,inhibition,[6],Dose-dependent effect
same,IC50,[7],6.1 µM
same,Time,[23],48.1 s
same,Time,[24],18.43 s
same,inhibition,[25],20%
same,Activity,[26],Active
same,Time,[27],14.5 s
same,Time,[28],80.7 s
same,Activity,[29],Dose-dependent effect
COC(C)(C)[C@H]1O[C@@]23O[C@@H]1C[C@@H](C)[C@@H]2[C@@]1(C)CC[C@@]24C[C@@]25CC[C@H](O[C@@H]2OC[C@@H](O)[C@H](O)[C@H]2O)C(C)(C)[C@@H]5CC=C4[C@]1(C)[C@H]3O,inhibition,[1],Dose-dependent effect
same,IC50,[2],8.1 µM
same,Activity,[3],Non-Toxic
same,IC50,[4],10.1 µM
same,inhibition,[5],48.9%
same,inhibition,[6],Dose-dependent effect
same,IC50,[7],7.1 µM
same,inhibition,[25],20%
C[C@@H]1C[C@H]([C@@H](O)C(C)(C)O)O[C@H]2C(=O)[C@@]3(C)C4=C(CC[C@]3(C)[C@@H]12)C[C@]12CC[C@H](O1)C(C)(C)[C@@H]2CC4,inhibition,[1],Dose-dependent effect
same,IC50,[2],6.2 µM
same,Activity,[3],Non-Toxic
same,IC50,[4],6.2 µM
same,inhibition,[5],80.6%
same,inhibition,[6],Dose-dependent effect
same,IC50,[7],4.3 µM
same,inhibition,[25],20%
